Measurements taken from ChEMBL document CHEMBL1154198, “Chemical genetics of Plasmodium falciparum” (Nature, 2010).

How the values were obtained:
Plasmodium falciparum [1] = test: ST_JUDE: Plasmodium falciparum K1 EC50 (uM) as measured by SYBR green dye; type: functional, organism-based
Plasmodium falciparum [2] = test: ST_JUDE: Plasmodium falciparum 3D7 EC50 (uM) as measured by SYBR green dye; type: functional, organism-based

CCOC(=O)c1ccc(-n2[nH]c(-c3ccccc3)cc2=O)cc1
EC50 (Plasmodium falciparum [1]): 8.96 µM
EC50 (Plasmodium falciparum [2]): > 15 µM

O=C(c1cccc(Cl)c1)N1CCN(c2ccc([N+](=O)[O-])c(NC3CC3)c2)CC1
EC50 (Plasmodium falciparum [1]): 3.68 µM
EC50 (Plasmodium falciparum [2]): 3.76 µM

CCCOc1ccccc1C(=O)Nc1nonc1-c1ccc(OCC)c(OCC)c1
EC50 (Plasmodium falciparum [1]): 0.595 µM
EC50 (Plasmodium falciparum [2]): > 15 µM

CN1CCN(c2ccc(Nc3ccnc4cc(Cl)ccc34)cc2Cl)CC1
EC50 (Plasmodium falciparum [1]): 0.0571 µM
EC50 (Plasmodium falciparum [2]): 0.0625 µM

O=C1CC(c2ccc(F)cc2F)C2=C(CC(c3ccc(F)cc3)CC2=O)N1 (configuration not stated)
EC50 (Plasmodium falciparum [1]): 0.73 µM
EC50 (Plasmodium falciparum [2]): 4.71 µM

CCN1CCN(CCCNC(=O)c2cc3cc4ccc(Cl)cc4nc3o2)CC1
EC50 (Plasmodium falciparum [1]): > 15 µM
EC50 (Plasmodium falciparum [2]): 4.54 µM

COc1ccc(CN2CCN(CC(C)(C)C)C(CCO)C2)c(O)c1 (configuration not stated)
EC50 (Plasmodium falciparum [1]): 3.73 µM
EC50 (Plasmodium falciparum [2]): 7.57 µM

COc1ccc(OC)c(C2C(C(=O)OC(C)C)=C(C)N=c3s/c(=C\c4ccc(O)cc4)c(=O)n32)c1 (configuration not stated)
EC50 (Plasmodium falciparum [1]): 1.39 µM
EC50 (Plasmodium falciparum [2]): > 15 µM

COc1cc(CNCCCN(C)C)ccc1OCc1ccc(F)cc1Cl
EC50 (Plasmodium falciparum [1]): 6.63 µM
EC50 (Plasmodium falciparum [2]): 1.59 µM

CCC(=O)Oc1cccc2ccc(/C=C/c3cc4c(cc3Cl)OCO4)nc12
EC50 (Plasmodium falciparum [1]): > 15 µM
EC50 (Plasmodium falciparum [2]): > 15 µM

O=C(Cc1ccccc1)N(Cc1cccnc1)c1nc2ccc(Cl)cc2s1
EC50 (Plasmodium falciparum [1]): > 15 µM
EC50 (Plasmodium falciparum [2]): > 15 µM

C=CCN1C(=O)c2[nH]nc(-c3c(C)cc(C)cc3O)c2C1c1cccc(OCC)c1 (configuration not stated)
EC50 (Plasmodium falciparum [1]): 2.83 µM
EC50 (Plasmodium falciparum [2]): 3.52 µM

CCOc1ccc(C2c3cccn3CCN2C(=O)NCc2ccccc2)cc1 (configuration not stated)
EC50 (Plasmodium falciparum [1]): > 15 µM
EC50 (Plasmodium falciparum [2]): 3.98 µM

CCOc1cc(CN(C)Cc2nnc(SCc3ccccc3C)n2CC2CCCO2)ccc1OC (configuration not stated)
EC50 (Plasmodium falciparum [1]): 2.42 µM
EC50 (Plasmodium falciparum [2]): 2.29 µM

CC(C)CCNCC(O)CON=C1c2ccccc2-c2ccccc21 (configuration not stated)
EC50 (Plasmodium falciparum [1]): 0.735 µM
EC50 (Plasmodium falciparum [2]): 1.71 µM

O=C1C(Nc2ccc(I)cc2)=C(N2CCOCC2)C(=O)c2ccccc21
EC50 (Plasmodium falciparum [1]): 0.181 µM
EC50 (Plasmodium falciparum [2]): 0.256 µM

NNc1nc(Nc2ccc(F)cc2)nc(N2CCOCC2)n1
EC50 (Plasmodium falciparum [1]): 5.15 µM
EC50 (Plasmodium falciparum [2]): 7.07 µM

COc1ccc(C2N(C)c3ccccc3N2C)cc1
EC50 (Plasmodium falciparum [1]): > 15 µM
EC50 (Plasmodium falciparum [2]): > 15 µM

N=C(N/N=C\c1ccc(Br)cc1)N/N=C\c1ccc(Br)cc1
EC50 (Plasmodium falciparum [1]): > 15 µM
EC50 (Plasmodium falciparum [2]): 2.3 µM

COc1ccc2c(=O)cc(C(Cl)(Cl)Cl)oc2c1
EC50 (Plasmodium falciparum [1]): 1.54 µM
EC50 (Plasmodium falciparum [2]): > 15 µM

Cc1ccc(Nc2nc(N)c3ccccc3n2)cc1Cl
EC50 (Plasmodium falciparum [1]): > 15 µM
EC50 (Plasmodium falciparum [2]): > 15 µM

CCCN1CCN(CCCNC(=O)c2ccc3c(c2)sc2nc(-c4cccc(OC)c4)cn23)CC1
EC50 (Plasmodium falciparum [1]): 3.18 µM
EC50 (Plasmodium falciparum [2]): 1.21 µM

CCO/C(O)=C1\C(C)=NC2=C(C(=O)CC(c3ccc(OC)c(OC)c3)C2)C1c1cccc([N+](=O)[O-])c1 (configuration not stated)
EC50 (Plasmodium falciparum [1]): > 15 µM
EC50 (Plasmodium falciparum [2]): > 15 µM

Cc1ccc(Oc2c(C(F)(F)F)oc3c(CN4CCN(C)CC4)c(O)ccc3c2=O)cc1
EC50 (Plasmodium falciparum [1]): 1.22 µM
EC50 (Plasmodium falciparum [2]): 1.43 µM

O=[N+]([O-])c1ccc(C2Nc3c(O)ccc(Br)c3C3C=CCC32)cc1 (configuration not stated)
EC50 (Plasmodium falciparum [1]): 2.71 µM
EC50 (Plasmodium falciparum [2]): 7 µM

CCc1cccc(NC(=O)C2c3ccccc3C(=O)N(CCOC)C2c2cccs2)c1 (configuration not stated)
EC50 (Plasmodium falciparum [1]): 4.14 µM
EC50 (Plasmodium falciparum [2]): 3.81 µM

CCOC(=O)C(C)Oc1cccc2c(=O)n(CC(=O)Nc3ccccc3C(F)(F)F)ccc12 (configuration not stated)
EC50 (Plasmodium falciparum [1]): > 15 µM
EC50 (Plasmodium falciparum [2]): > 15 µM

Cc1cc(N2CCN(C)CC2)nc2ccc(NC(=S)NC3CCN(Cc4ccccc4)CC3)cc12
EC50 (Plasmodium falciparum [1]): 5.8 µM
EC50 (Plasmodium falciparum [2]): 1.2 µM

COc1ccc(OC)c2sc(N(Cc3cccnc3)C(=O)c3cccc(Cl)c3)nc12
EC50 (Plasmodium falciparum [1]): 1.65 µM
EC50 (Plasmodium falciparum [2]): > 15 µM

COc1ccc(OCC(O)CN2CCN(c3ccc(OC)cc3)CC2)cc1 (configuration not stated)
EC50 (Plasmodium falciparum [1]): > 15 µM
EC50 (Plasmodium falciparum [2]): > 15 µM

O=S(=O)(Nc1ccc(-c2ccc(N3CCCC3)nn2)cc1)c1ccc(Br)cc1
EC50 (Plasmodium falciparum [1]): > 15 µM
EC50 (Plasmodium falciparum [2]): > 15 µM

COc1ccc(CCNC(=S)Nc2ccccc2Cl)cc1Br
EC50 (Plasmodium falciparum [1]): 1.6 µM
EC50 (Plasmodium falciparum [2]): 0.96 µM

COc1ccc(CCNC(=S)Nc2cccc(Cl)c2)cc1OC
EC50 (Plasmodium falciparum [1]): 3.98 µM
EC50 (Plasmodium falciparum [2]): 5.39 µM

CCN(CC)CCOc1ccc2c(c1)C(=NO)c1cc(OCCN(CC)CC)ccc1-2
EC50 (Plasmodium falciparum [1]): 2.27 µM
EC50 (Plasmodium falciparum [2]): 1.49 µM

COCCN1CCC(CN(Cc2ccncc2)Cc2ccc(CC(C)C)cc2)CC1
EC50 (Plasmodium falciparum [1]): 5.3 µM
EC50 (Plasmodium falciparum [2]): 6.73 µM

CN(C)CCNC(=O)c1ccc2c(c1)sc1nc(-c3ccc(F)cc3)cn12
EC50 (Plasmodium falciparum [1]): 3.54 µM
EC50 (Plasmodium falciparum [2]): 3.19 µM

CC(C)CC(=O)NC(NC(=S)Nc1cccc(Cl)c1)C(Cl)(Cl)Cl (configuration not stated)
EC50 (Plasmodium falciparum [1]): 2.5 µM
EC50 (Plasmodium falciparum [2]): 1.73 µM

CN(C)CCCNc1c2c(nc3ccccc13)CCC2
EC50 (Plasmodium falciparum [1]): > 15 µM
EC50 (Plasmodium falciparum [2]): > 15 µM

CCN(CC)C(=O)CSc1nc2cc(OC)c(OC)cc2c2nc(-c3ccccc3)nn12
EC50 (Plasmodium falciparum [1]): 0.335 µM
EC50 (Plasmodium falciparum [2]): > 15 µM

CCCN(CCC)C(=O)c1ccc2c(Cl)c3c(nc2c1)CCCC3
EC50 (Plasmodium falciparum [1]): > 15 µM
EC50 (Plasmodium falciparum [2]): > 15 µM

CCOc1ccccc1NC(=O)C(C)Oc1cccc(Br)c1 (configuration not stated)
EC50 (Plasmodium falciparum [1]): > 15 µM
EC50 (Plasmodium falciparum [2]): > 15 µM

COc1cc2c(cc1OC)C(COc1cccc(C(F)(F)F)c1)N(C(=O)C(C)(C)C)CC2 (configuration not stated)
EC50 (Plasmodium falciparum [1]): 8.91 µM
EC50 (Plasmodium falciparum [2]): 6.77 µM

O=C(/C=C/c1ccco1)Nc1ccc(C(F)(F)F)cc1
EC50 (Plasmodium falciparum [1]): > 15 µM
EC50 (Plasmodium falciparum [2]): > 15 µM

O=S(=O)(NCC(c1cccnc1)N1CCN(c2ccccc2F)CC1)c1ccc(F)cc1 (configuration not stated)
EC50 (Plasmodium falciparum [1]): 5.33 µM
EC50 (Plasmodium falciparum [2]): > 15 µM

O=C(O)c1cccc(NC2=C(n3nnc4ccccc43)C(=O)c3ccccc3C2=O)c1
EC50 (Plasmodium falciparum [1]): 4.19 µM
EC50 (Plasmodium falciparum [2]): > 15 µM

Cc1nc2nc(NCc3cccc(Br)c3)nn2c(O)c1C
EC50 (Plasmodium falciparum [1]): > 15 µM
EC50 (Plasmodium falciparum [2]): > 15 µM

CCOC(=O)c1ccc2nc(C)cc(Nc3ccc(C)cc3C)c2c1
EC50 (Plasmodium falciparum [1]): > 15 µM
EC50 (Plasmodium falciparum [2]): > 15 µM

O=C(N/N=C/c1nc2ccccc2[nH]1)c1cccc(Cl)c1
EC50 (Plasmodium falciparum [1]): > 15 µM
EC50 (Plasmodium falciparum [2]): 1.65 µM

C[n+]1ccn2c3c(c4cc(C5CCCCC5)ccc42)CCCc31
EC50 (Plasmodium falciparum [1]): 2.34 µM
EC50 (Plasmodium falciparum [2]): > 15 µM

Cc1ccc(Nc2cc(C)nc(N3CCN(C(=O)Nc4cccc(Cl)c4)CC3)n2)cc1
EC50 (Plasmodium falciparum [1]): > 15 µM
EC50 (Plasmodium falciparum [2]): > 15 µM

CC(=O)N1CCc2c(sc(NC(=O)c3ccc(C)c(C)c3)c2C(N)=O)C1
EC50 (Plasmodium falciparum [1]): > 15 µM
EC50 (Plasmodium falciparum [2]): > 15 µM

CCc1ccc2nc(N(Cc3cccnc3)C(C)=O)sc2c1
EC50 (Plasmodium falciparum [1]): > 15 µM
EC50 (Plasmodium falciparum [2]): > 15 µM

COc1ccc(C(=O)Nc2cccc(-c3nc4ccccc4s3)c2)cc1[N+](=O)[O-]
EC50 (Plasmodium falciparum [1]): > 15 µM
EC50 (Plasmodium falciparum [2]): > 15 µM

CCOc1ccc(/C=C(/C#N)c2nc3ccccc3[nH]2)cc1OC
EC50 (Plasmodium falciparum [1]): 4.68 µM
EC50 (Plasmodium falciparum [2]): 3.39 µM

O=[N+]([O-])c1cccc(NC(=S)Nc2ccc(OC(F)F)c(Cl)c2)c1
EC50 (Plasmodium falciparum [1]): 4.46 µM
EC50 (Plasmodium falciparum [2]): 6.66 µM

CC(=O)c1cccc(NC(=O)C2c3ccccc3C(=O)N(C3CCCC3)C2c2cccs2)c1 (configuration not stated)
EC50 (Plasmodium falciparum [1]): 2.02 µM
EC50 (Plasmodium falciparum [2]): 1.75 µM

CN(C)CCCNCc1ccc2[nH]c3ccccc3c2c1
EC50 (Plasmodium falciparum [1]): > 15 µM
EC50 (Plasmodium falciparum [2]): 0.35 µM

COc1cc(/C=C(\C#N)C(=O)Nc2ccccc2F)cc(OC)c1OC
EC50 (Plasmodium falciparum [1]): > 15 µM
EC50 (Plasmodium falciparum [2]): > 15 µM

COc1ccc(NC(=O)c2sc3ccccc3c2Cl)c(OC)c1
EC50 (Plasmodium falciparum [1]): > 15 µM
EC50 (Plasmodium falciparum [2]): > 15 µM

Cc1cccc(C2CC(=O)NC3=C2C(=O)CC(c2ccccc2Cl)C3)c1 (configuration not stated)
EC50 (Plasmodium falciparum [1]): 4.42 µM
EC50 (Plasmodium falciparum [2]): > 15 µM

CCOc1ccc2nc(C)cc(Nc3ccc(N4CCOCC4)cc3)c2c1
EC50 (Plasmodium falciparum [1]): 6.36 µM
EC50 (Plasmodium falciparum [2]): 0.982 µM

Cc1cc(C)cc(Nc2nc(NCC3CCCO3)c3ccccc3n2)c1 (configuration not stated)
EC50 (Plasmodium falciparum [1]): 1.79 µM
EC50 (Plasmodium falciparum [2]): 1.6 µM

COc1ccc(N2C(=O)c3cccnc3C2Nc2ccc(C)cc2Cl)cc1 (configuration not stated)
EC50 (Plasmodium falciparum [1]): 3.84 µM
EC50 (Plasmodium falciparum [2]): 4 µM

OC(CN1CCN(C/C=C/c2ccccc2)CC1)Cn1c2ccccc2c2ccccc21 (configuration not stated)
EC50 (Plasmodium falciparum [1]): 0.65 µM
EC50 (Plasmodium falciparum [2]): 1.4 µM

Cc1cc(C)c2c(=O)cc(C(Cl)(Cl)Cl)oc2c1
EC50 (Plasmodium falciparum [1]): > 15 µM
EC50 (Plasmodium falciparum [2]): > 15 µM

COc1ccc2nc(N(Cc3cccnc3)C(=O)CCc3ccccc3)sc2c1
EC50 (Plasmodium falciparum [1]): 3.53 µM
EC50 (Plasmodium falciparum [2]): > 15 µM

CCOC(=O)C1=C(c2ccc(F)cc2)C(=O)c2ccccc2C1=O
EC50 (Plasmodium falciparum [1]): 1.71 µM
EC50 (Plasmodium falciparum [2]): 2.28 µM

CC(C)OC(=O)c1cc(NC(=S)Nc2ccc([N+](=O)[O-])cc2)cc(C(=O)OC(C)C)c1
EC50 (Plasmodium falciparum [1]): 1.55 µM
EC50 (Plasmodium falciparum [2]): > 15 µM

COc1ccc2sc(N(Cc3cccnc3)C(=O)c3ccc(F)cc3)nc2c1
EC50 (Plasmodium falciparum [1]): 1.49 µM
EC50 (Plasmodium falciparum [2]): > 15 µM

Cc1n(C)c2ccccc2[n+]1CC(=O)c1ccc([N+](=O)[O-])cc1
EC50 (Plasmodium falciparum [1]): 2.09 µM
EC50 (Plasmodium falciparum [2]): 1.61 µM

CCCCOc1ccc(NC2=C(N3CCCCC3)C(=O)c3ccccc3C2=O)cc1
EC50 (Plasmodium falciparum [1]): 0.0135 µM
EC50 (Plasmodium falciparum [2]): 0.0145 µM
